Here are results for 10 molecules from patent US20260274892A1, “MACROCYCLIC BROAD SPECTRUM ANTIBIOTICS” (RQx Pharmaceuticals, Inc., priority 2017, published 2026).

The test concerns Escherichia coli ATCC 25922. The test can be described thus: Minimum inhibitory concentration (MIC), CLSI broth micro-dilution, E. coli. It is filed as cell-based. As to conditions: Escherichia coli. Put shortly:
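Colonies grown 20 h at 35° C on Trypticase Soy agar (MRSA) or Luria agar (E. coli) were suspended in cation-adjusted Mueller Hinton broth with 0.002% Tween-80. Suspensions were added at OD600 0.0005 to 10-point twofold compound dilutions, then incubated 22 h at 35° C.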
A general note: In broth dilution the organism is exposed to a series of concentrations in liquid medium.

[1] abbreviates: ATCC25922, Table 6, cation adjusted Mueller Hinton Broth + 0.002% Tween-80, 35° C., 22 hours.
[2] abbreviates: ATCC25922, 22 h, Table 6, cation adjusted Mueller Hinton Broth + 0.002% Tween-80, 35° C.

Take `Cc1nc(-c2ccc(C(C)(C)C)cc2)nc(C)c1C(=O)N[C@H](COC(C)(C)C)C(=O)N[C@@H](CCN)C(=O)N(C)[C@@H]1C(=O)N[C@@H](C)C(=O)N[C@H](C(=O)NCC#N)Cc2ccc(OCCN)c(c2)-c2cc1ccc2OCCN` (racemic) [Compound 468, rac-(8S,11S,14S)-3,18-bis(2-aminoethoxy)-N-(cyanomethyl)-11-methyl-14-[methyl-[rac-(2S)-4-amino-2-[[rac-(2R)-3-tert-butoxy-2-[[2-(4-tert-butylphenyl)-4,6-dimethyl-pyrimidine-5-carbonyl]amino]propanoyl]amino]butanoyl]amino]-10,13-dioxo-9,12-diazatricyclo[13.3.1.12,6]icosa-1(18),2(20),3,5,15(19),16-hexaene-8-carboxamide]: the MIC under setting [1] worked out at 1 µM. Same read-out and setting: for `CCCCCCc1ccc(C(=O)N2C[C@H](N)CC2C(=O)N(C)[C@@H]2C(=O)N[C@@H](C)C(=O)N[C@H](C(=O)NCC#N)Cc3ccc(OCCN)c(c3)-c3cc2ccc3OCCN)c(C)c1` (mixture of isomers) [Compound 481, rac-(8S,11S,14S)-3,18-bis(2-aminoethoxy)-14-[[4-amino-1-(4-hexyl-2-methyl-benzoyl)pyrrolidine-2-carbonyl]-methyl-amino]-N-(cyanomethyl)-11-methyl-10,13-dioxo-9,12-diazatricyclo[13.3.1.12,6]icosa-1(18),2(20),3,5,15(19),16-hexaene-8-carboxamide] the value was 2.3 µM; for `Cc1nc(-c2ccc(C(C)(C)C)cc2)ncc1C(=O)N[C@@H](CNC(=O)CN)C(=O)N(C)[C@@H]1C(=O)N[C@@H](C)C(=O)N[C@H](C(=O)NCC#N)Cc2ccc(OCCN)c(c2)-c2cc1ccc2OCCN` (racemic) [Compound 491, rac-(8S,11S,14S)-3,18-bis(2-aminoethoxy)-N-(cyanomethyl)-11-methyl-14-[methyl-[rac-(2S)-3-[(2-aminoacetyl)amino]-2-[[2-(4-tert-butylphenyl)-4-methyl-pyrimidine-5-carbonyl]amino]propanoyl]amino]-10,13-dioxo-9,12-diazatricyclo[13.3.1.12,6]icosa-1(18),2(20),3,5,15(19),16-hexaene-8-carboxamide], 3.1 µM. For the molecule `Cc1nc(-c2ccc(C(C)(C)C)cc2)ncc1C(=O)N[C@@H](CCNCC(N)=O)C(=O)N(C)[C@@H]1C(=O)N[C@@H](C)C(=O)N[C@H](C(=O)NCC#N)Cc2ccc(OCCN)c(c2)-c2cc1ccc2OCCN` (racemic) [Compound 493, rac-(8S,11S,14S)-3,18-bis(2-aminoethoxy)-N-(cyanomethyl)-11-methyl-14-[methyl-[rac-(2S)-4-[(2-amino-2-oxo-ethyl)amino]-2-[[2-(4-tert-butylphenyl)-4-methyl-pyrimidine-5-carbonyl]amino]butanoyl]amino]-10,13-dioxo-9,12-diazatricyclo[13.3.1.12,6]icosa-1(18),2(20),3,5,15(19),16-hexaene-8-carboxamide], the MIC under setting [1] is 1 µM. On the same count and under the same terms, the same measure for `Cc1nc(-c2ccc(C(C)(C)C)cc2)ncc1C(=O)N[C@@H](CCNC=O)C(=O)N(C)[C@@H]1C(=O)N[C@@H](C)C(=O)N[C@H](C(=O)NCC#N)Cc2ccc(OCCN)c(c2)-c2cc1ccc2OCCN` (racemic) [Compound 494, rac-(8S,11S,14S)-3,18-bis(2-aminoethoxy)-N-(cyanomethyl)-11-methyl-14-[methyl-[rac-(2S)-2-[[2-(4-tert-butylphenyl)-4-methyl-pyrimidine-5-carbonyl]amino]-4-formamido-butanoyl]amino]-10,13-dioxo-9,12-diazatricyclo[13.3.1.12,6]icosa-1(18),2(20),3,5,15(19),16-hexaene-8-carboxamide]: 1.1 µM. In the case of `Cc1nc(-c2ccc(OC3CCCCC3)cc2)nc(C)c1C(=O)N[C@@H](CCNC=O)C(=O)N(C)[C@@H]1C(=O)N[C@@H](C)C(=O)N[C@H](C(=O)NCC#N)Cc2ccc(OCCN)c(c2)-c2cc1ccc2OCCN` (racemic) [Compound 504, rac-(8S,11S,14S)-3,18-bis(2-aminoethoxy)-N-(cyanomethyl)-11-methyl-14-[methyl-[rac-(2S)-2-[[2-[4-(cyclohexoxy)phenyl]-4,6-dimethyl-pyrimidine-5-carbonyl]amino]-4-formamido-butanoyl]amino]-10,13-dioxo-9,12-diazatricyclo[13.3.1.12,6]icosa-1(18),2(20),3,5,15(19),16-hexaene-8-carboxamide], the MIC under setting [1] is 0.75 µM. Consider `Cc1nc(-c2ccc(OC3CCCCC3)cc2)nc(C)c1C(=O)N[C@@H](CCN)C(=O)N[C@@H]1C(=O)N[C@@H](C)C(=O)N[C@H](C(=O)NCC#N)Cc2ccc(OCCN)c(c2)-c2cc1ccc2OCCN` (racemic) [Compound 519, rac-(8S,11S,14S)-3,18-bis(2-aminoethoxy)-N-(cyanomethyl)-11-methyl-10,13-dioxo-14-[[rac-(2S)-4-amino-2-[[2-[4-(cyclohexoxy)phenyl]-4,6-dimethyl-pyrimidine-5-carbonyl]amino]butanoyl]amino]-9,12-diazatricyclo[13.3.1.12,6]icosa-1(18),2(20),3,5,15(19),16-hexaene-8-carboxamide], for which the MIC under setting [2] was 0.13 µM. Same read-out and setting: for `C[C@@H]1NC(=O)[C@@H](N(C)C(=O)[C@H](CCN)NC(=O)c2c(N)cc(-c3ccc(C(C)(C)C)cc3)nc2N)c2ccc(OCCN)c(c2)-c2cc(ccc2OCCN)C[C@@H](C(=O)NCC#N)NC1=O` (racemic) [Compound 520, rac-(8S,11S,14S)-3,18-bis(2-aminoethoxy)-N-(cyanomethyl)-11-methyl-14-[methyl-[rac-(2S)-4-amino-2-[[2,4-diamino-6-(4-tert-butylphenyl)pyridine-3-carbonyl]amino]butanoyl]amino]-10,13-dioxo-9,12-diazatricyclo[13.3.1.12,6]icosa-1(18),2(20),3,5,15(19),16-hexaene-8-carboxamide] the value was 1 µM; for `Cc1nc(-c2ccc(OC3CCCCC3)cc2)nc(C)c1C(=O)N[C@@H](CCN)C(=O)N(C)[C@@H]1C(=O)N[C@@H](C)C(=O)N[C@H](C(=O)NCC#N)Cc2ccc(OCCN)c(c2)-c2cc1ccc2O` (racemic) [Compound 522, rac-(8S,11S,14S)-3-(2-aminoethoxy)-N-(cyanomethyl)-18-hydroxy-11-methyl-14-[methyl-[rac-(2S)-4-amino-2-[[2-[4-(cyclohexoxy)phenyl]-4,6-dimethyl-pyrimidine-5-carbonyl]amino]butanoyl]amino]-10,13-dioxo-9,12-diazatricyclo[13.3.1.12,6]icosa-1(18),2(20),3,5,15(19),16-hexaene-8-carboxamide], 0.13 µM; for `Cc1nc(N2CCC(OCCC(C)(C)C)CC2)nc(C)c1C(=O)N[C@@H](CCN)C(=O)N(C)[C@@H]1C(=O)N[C@@H](C)C(=O)N[C@H](C(=O)NCC#N)Cc2ccc(OCCN)c(c2)-c2cc1ccc2OCCN` (racemic) [Compound 527, rac-(8S,11S,14S)-3,18-bis(2-aminoethoxy)-N-(cyanomethyl)-11-methyl-14-[methyl-[rac-(2S)-4-amino-2-[[2-[4-(3,3-dimethylbutoxy)-1-piperidyl]-4,6-dimethyl-pyrimidine-5-carbonyl]amino]butanoyl]amino]-10,13-dioxo-9,12-diazatricyclo[13.3.1.12,6]icosa-1(18),2(20),3,5,15(19),16-hexaene-8-carboxamide], 0.38 µM.

What is called MIC is the lowest concentration that inhibits growth of the organism.
